Reference: US7314864B1, “Humanin, a polypeptide suppressing neuronal death” (Keio University, priority 1999, dated 2008)

Tests used:
[1] = test system: primary cultured cortical neurons treated with Aβ1-43; assay: Aβ1-43-induced cell damage of primary cultured cortical neurons, LDH release; type: cell-based, mouse; conditions: 100 ng/ml
Method: Primary culture of mouse cortical neurons was performed in poly-D-lysine-coated 24-well plates (Sumitomo Bakelite) in the absence of serum and in the presence of N2 supplement, as described in literature (Ecksioglu, Y. Z. et al. (1994) Brain Res. 644, 282-90). The purity of neurons prepared according to the method was >98%. The prepared neurons (1.25×10^5/well, 250 μl media/well) were preincubated in the absence or presence of 10 nM or 10 μM sHN polypeptides for 16 hours; and were treated with 25 μM Aβ1-43 in the absence or presence of sHN polypeptides at the same concentrations for 24 to 72 hours. […]
Trypan blue exclusion assay was performed as follows. […] Within 3 minutes of the trypan blue solution addition, stained cells were counted. Cell mortality was determined [100-cell survival rate (%)] based on the stained cell count. […] Specifically, 6 μM Calcein-AM (3′, 6′-Di-(O-acetyl)-2′-7′-bis[N,N-bis(carboxymethyl)aminomethyl]fluorescein, tetraacetoxymethyl ester; Dojindo, Cat. #349-07201) was added to the neurons; and 30 minutes or longer after Calcein-AM treatment, fluorescence (ex=490 nm, em=515 nm) was observed by fluorescence microscopy, and measured by a spectrometer. Specific fluorescence was calculated by subtracting basal fluorescence from total fluorescence. […]

[2] = test system: primary cultured cortical neurons treated with Aβ1-43; assay: Aβ1-43-induced cell death of primary cultured cortical neurons, trypan blue exclusion assay; type: cell-based; conditions: 100 ng/ml

For “NGF: NGF, tested at 100 ng/ml against Aβ-induced neuronal death [reference compound]”, the “effect on increased LDH release induced by Aβ” value [1] was “did not show effects” and the “effect on cell death of neurons induced by Aβ” value [2] was “did not show effects”.
